ChEMBL document CHEMBL1201862, “PubChem BioAssay data set” (2004)
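Assay format: 96-well plates, 48-hour exposure. GI50: concentration for 50% inhibition of growth.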 Activity calls are given as the source filed them. Cut-off read from the data, not from the text of the source: active = GI50 up to about 1.1 µM and inactive = higher.

Legend:
Test in all cases: DTP human tumour cell line panel, 48 h
KM12 = test system: KM12
SNB-75 = test system: SNB-75
SW-620 = test system: SW-620
U-251 = test system: U-251
HCT-116 = test system: HCT-116
UACC-257 = test system: UACC-257
K562 = test system: K562
SF-295 = test system: SF-295
786-0 = test system: 786-0
SK-MEL-5 = test system: SK-MEL-5
SK-MEL-2 = test system: SK-MEL-2
LOX IMVI = test system: LOX IMVI
MDA-N = test system: MDA-N
SNB-19 = test system: SNB-19
OVCAR-4 = test system: OVCAR-4
COLO 205 = test system: COLO 205
NCI-H522 = test system: NCI-H522
SF-539 = test system: SF-539
OVCAR-3 = test system: OVCAR-3
OVCAR-5 = test system: OVCAR-5

Measured: GI50

CC(Cc1ccc(O)c(O)c1)C(C)Cc1ccc(O)c(O)c1 (centres undefined) [NORDIHYDROGUAIARETIC ACID]
inactive: KM12 17.1 µM | SNB-75 19.8 µM | SW-620 18.9 µM | U-251 18.7 µM | HCT-116 17.3 µM | UACC-257 18.2 µM | K562 25.4 µM | SF-295 22.1 µM | 786-0 17.2 µM | SK-MEL-5 16.8 µM | SK-MEL-2 18.5 µM | LOX IMVI 17.4 µM | MDA-N 10.2 µM | SNB-19 19.5 µM | OVCAR-4 14.4 µM | COLO 205 18.7 µM | NCI-H522 2.03 µM | SF-539 17.5 µM | OVCAR-3 13.7 µM | OVCAR-5 21.2 µM

CN(C)c1ccc(/C=C/C(=O)c2ccc(O)cc2)cc1
inactive: KM12 3.25 µM | SNB-75 5.2 µM | SW-620 3.57 µM | U-251 3.99 µM | HCT-116 3.69 µM | UACC-257 7.66 µM | K562 1.7 µM | SF-295 4.58 µM | 786-0 7.64 µM | SK-MEL-5 6.58 µM | SK-MEL-2 14 µM | LOX IMVI 6.35 µM | SNB-19 25.1 µM | OVCAR-4 24.2 µM | COLO 205 14 µM | NCI-H522 2.71 µM | SF-539 3.2 µM | OVCAR-3 2.9 µM | OVCAR-5 38.6 µM
active: MDA-N 0.935 µM

O=C1C2C=CC1C1C(=O)OC(=O)C21 (centres undefined)
inactive: KM12 > 100 µM | SNB-75 > 100 µM | SW-620 > 100 µM | U-251 > 100 µM | HCT-116 > 100 µM | UACC-257 > 100 µM | K562 > 100 µM | SF-295 > 100 µM | 786-0 > 100 µM | SK-MEL-5 > 100 µM | SK-MEL-2 > 100 µM | LOX IMVI > 100 µM | MDA-N > 100 µM | SNB-19 > 100 µM | OVCAR-4 > 100 µM | COLO 205 > 100 µM | NCI-H522 > 100 µM | SF-539 > 100 µM | OVCAR-3 > 100 µM | OVCAR-5 > 100 µM

O=c1c(=O)c2c(Br)sc(Br)c2c1=O
inactive: KM12 > 100 µM | SNB-75 28.9 µM | SW-620 15.8 µM | U-251 23.6 µM | HCT-116 20.1 µM | UACC-257 19.5 µM | K562 21.4 µM | SF-295 > 100 µM | 786-0 22.6 µM | SK-MEL-5 16.9 µM | SK-MEL-2 20.8 µM | LOX IMVI 19.7 µM | MDA-N 18.1 µM | SNB-19 70.6 µM | OVCAR-4 16.4 µM | COLO 205 20.3 µM | NCI-H522 16.1 µM | SF-539 19.5 µM | OVCAR-3 18.5 µM | OVCAR-5 20.3 µM

CC(CO)[C@H]1OC(=O)C=C2[C@@]13O[C@@H]3[C@H]1OC(=O)[C@@]3(C)[C@H]4O[C@H]4C[C@@]2(C)[C@@H]13 (some centres undefined)
active: SNB-75 0.738 µM | HCT-116 1.07 µM | SK-MEL-5 0.8 µM | LOX IMVI 0.249 µM
inactive: KM12 1.19 µM | SW-620 1.65 µM | U-251 2.15 µM | UACC-257 1.44 µM | K562 1.17 µM | SF-295 1.36 µM | 786-0 1.57 µM | SK-MEL-2 2.07 µM | MDA-N 1.32 µM | SNB-19 1.47 µM | OVCAR-4 1.15 µM | COLO 205 1.58 µM | NCI-H522 1.46 µM | SF-539 1.83 µM | OVCAR-3 2.17 µM | OVCAR-5 3.78 µM

COc1ccc(/C=C2\CCC(C)(CN(C)C)C2=O)cc1Br (centres undefined)
inactive: KM12 14 µM | SNB-75 25.6 µM | SW-620 19.8 µM | U-251 21.8 µM | HCT-116 17.2 µM | UACC-257 19.5 µM | K562 27.9 µM | SF-295 26.3 µM | 786-0 19.6 µM | SK-MEL-5 14.8 µM | SK-MEL-2 18.7 µM | LOX IMVI 18.2 µM | MDA-N 19.1 µM | SNB-19 23 µM | OVCAR-4 18.9 µM | COLO 205 18.5 µM | NCI-H522 17 µM | SF-539 21.5 µM | OVCAR-3 18.2 µM | OVCAR-5 37.7 µM

CCCCCCCCCCCCCCCC(=O)Nc1ccn(C2CC(OP(=O)(O)OCC3OC(n4cc(F)c(=O)[nH]c4=O)CC3OC(C)=O)C(CO)O2)c(=O)n1 (centres undefined)
active: SF-539 0.07 µM
inactive: KM12 15 µM | SNB-75 13.7 µM | SW-620 22.9 µM | U-251 15.7 µM | HCT-116 3.84 µM | UACC-257 > 57.1 µM | K562 13.3 µM | SF-295 1.81 µM | 786-0 6.47 µM | SK-MEL-5 11.5 µM | SK-MEL-2 > 45.1 µM | LOX IMVI 1.29 µM | MDA-N 42.5 µM | SNB-19 2.73 µM | OVCAR-4 44.7 µM | COLO 205 18.3 µM | NCI-H522 9.04 µM | OVCAR-3 > 53.2 µM | OVCAR-5 > 41.8 µM

CC1=C(/C=C/C(C)=C/C=C/C(C)=C/C(=O)Nc2ccc(O)cc2)C(C)(C)CCC1 [FENRETINIDE]
active: NCI-H522 0.929 µM | SF-539 1.05 µM
inactive: KM12 3.92 µM | SNB-75 7.03 µM | SW-620 5.48 µM | U-251 4.65 µM | HCT-116 4.06 µM | UACC-257 9.71 µM | K562 2.69 µM | SF-295 2.85 µM | 786-0 2.58 µM | SK-MEL-5 4.15 µM | SK-MEL-2 7.33 µM | LOX IMVI 1.74 µM | MDA-N 2.75 µM | SNB-19 6.5 µM | OVCAR-4 3.94 µM | COLO 205 2.61 µM | OVCAR-3 2.55 µM | OVCAR-5 10.6 µM

COC(=O)C1Cc2c([nH]c3ccccc23)-c2[nH]c3ccccc3c2CC(NC(C)=O)C(=O)N2CCCC2C(=O)N1 (centres undefined)
inactive: SNB-75 > 100 µM | SW-620 > 100 µM | U-251 > 100 µM | HCT-116 > 100 µM | UACC-257 > 100 µM | K562 > 100 µM | SF-295 > 100 µM | 786-0 > 100 µM | SK-MEL-5 > 100 µM | SK-MEL-2 > 100 µM | LOX IMVI > 100 µM | MDA-N > 100 µM | SNB-19 > 100 µM | OVCAR-4 > 100 µM | COLO 205 53.1 µM | NCI-H522 36.1 µM | SF-539 > 100 µM | OVCAR-3 > 100 µM | OVCAR-5 > 100 µM

NS(=O)(=O)c1ccc(/N=N/c2ccc(O)c(O)c2)cc1
inactive: KM12 11.7 µM | SNB-75 25 µM | SW-620 7.89 µM | U-251 12.6 µM | HCT-116 9.71 µM | UACC-257 24.3 µM | K562 28.7 µM | SF-295 37 µM | 786-0 12.4 µM | SK-MEL-5 6.19 µM | SK-MEL-2 17.2 µM | LOX IMVI 15 µM | MDA-N 20.6 µM | SNB-19 21.8 µM | OVCAR-4 5.98 µM | COLO 205 20.7 µM | NCI-H522 1.6 µM | SF-539 15.9 µM | OVCAR-3 24.3 µM | OVCAR-5 48.6 µM

COC(=O)C12C3C4C1C1C2C3C41C(=O)NC(C)(C)CC(=O)O (centres undefined)
inactive: KM12 > 100 µM | SNB-75 > 100 µM | SW-620 > 100 µM | U-251 > 100 µM | HCT-116 > 100 µM | UACC-257 > 100 µM | SF-295 > 100 µM | 786-0 > 100 µM | SK-MEL-5 > 100 µM | SK-MEL-2 > 100 µM | LOX IMVI > 100 µM | MDA-N > 100 µM | SNB-19 > 100 µM | OVCAR-4 > 100 µM | COLO 205 > 100 µM | NCI-H522 > 100 µM | SF-539 > 100 µM | OVCAR-3 > 100 µM | OVCAR-5 > 100 µM

CC(C)(C)OC(=O)NC(CCC(=O)OCc1ccccc1)C(=O)NCCCO (centres undefined)
inactive: KM12 > 100 µM | SNB-75 > 100 µM | SW-620 > 100 µM | U-251 > 100 µM | HCT-116 > 100 µM | UACC-257 > 100 µM | K562 > 100 µM | 786-0 > 100 µM | SK-MEL-5 > 100 µM | SK-MEL-2 > 100 µM | LOX IMVI > 100 µM | MDA-N > 100 µM | SNB-19 > 100 µM | OVCAR-4 > 100 µM | NCI-H522 > 100 µM | SF-539 > 100 µM | OVCAR-3 > 100 µM | OVCAR-5 > 100 µM

COc1ccc(C(OCC2OC(n3cc(C)c(=O)[nH]c3=O)CC2n2cc(Cn3cc(I)c(=O)[nH]c3=O)nn2)(c2ccccc2)c2ccccc2)cc1 (centres undefined)
inactive: KM12 14.2 µM | SNB-75 48.6 µM | SW-620 > 100 µM | U-251 > 100 µM | HCT-116 > 100 µM | UACC-257 > 100 µM | SF-295 > 100 µM | 786-0 > 100 µM | SK-MEL-5 > 100 µM | SK-MEL-2 > 100 µM | LOX IMVI > 100 µM | MDA-N > 100 µM | SNB-19 > 100 µM | OVCAR-4 > 100 µM | COLO 205 > 100 µM | NCI-H522 > 100 µM | SF-539 > 100 µM | OVCAR-3 > 100 µM | OVCAR-5 > 100 µM

CCC12CN(C(=O)OC)C3C(Br)C1CCC(=O)C32 (centres undefined)
inactive: KM12 > 100 µM | SNB-75 > 100 µM | SW-620 > 100 µM | U-251 > 100 µM | UACC-257 > 100 µM | K562 > 100 µM | SF-295 > 100 µM | 786-0 > 100 µM | SK-MEL-5 > 100 µM | SK-MEL-2 > 100 µM | LOX IMVI > 100 µM | MDA-N > 100 µM | SNB-19 > 100 µM | OVCAR-4 > 100 µM | COLO 205 > 100 µM | NCI-H522 84.1 µM | SF-539 > 100 µM | OVCAR-3 > 100 µM | OVCAR-5 > 100 µM
